Structures can show the parent of a compound that is named as a salt.
Experiments:
SH-SY5Y cells [1] = experiment: 1H NMR metabolic profiling of cell aqueous extracts; assay type: cell-based, human; settings: for 2-Ketovaline, variation in relation to control / 2-Oxoisoleucine, variation in relation to control / ATP + ADP, variation in relation to control / Alanine, variation in relation to control / Asparagine, variation in relation to control / Aspartate, variation in relation to control / Creatine, variation in relation to control / Cystathionine, variation in relation to control / Formate, variation in relation to control / Glutamate, variation in relation to control / Glutamine, variation in relation to control / Glycerophosphocholine, variation in relation to control / Glycine, variation in relation to control / Histidine, variation in relation to control / Isobutyrate, variation in relation to control / Isoleucine, variation in relation to control / Lactate, variation in relation to control / Leucine, variation in relation to control / NAD+, variation in relation to control / Panthothenic, variation in relation to control / Phenylalanine, variation in relation to control / Phosphocholine, variation in relation to control / Phosphocreatine, variation in relation to control / Proline, variation in relation to control / UDP-GlcNAc, variation in relation to control / Valine, variation in relation to control / beta-Alanine, variation in relation to control / myo-Inositol, variation in relation to control: aqueous extract
Procedure: (§1) Afterward, the medium was collected and the dishes washed with cold PBS, immediately before the solvent extraction procedure described below. Unexposed cells were used as controls. Each assay comprised duplicates of each condition and three independent assays were performed, giving a total of 6 replicates per condition.
(§2) The culture medium was collected from each plate (including cell-free medium incubated under the same conditions) in conical tubes and centrifuged at 1000× g for 10 min. Furthermore, 300 µL of the supernatant were collected for protein precipitation, as described by Kostidis et al.. Briefly, 600 µL of 100% methanol (v/v) at −80 °C were added to the collected supernatant ([…]). […] The supernatant was transferred to another tube and vacuum dried (SpeedVac, Eppendorf, Hamburg, Germany). For extracting cellular metabolites, a biphasic extraction protocol (methanol:chloroform:water; 1:1:0.7) was used as previously described. The resulting polar extracts were dried under vacuum in a Speedvac concentrator, and the lipophilic extracts were dried under a nitrogen flow. All extracts were stored at −80 °C prior to NMR analysis.
(§3) For NMR analysis, dried aqueous and lipid extracts were dissolved, respectively, in 600 μL of deuterated phosphate buffer (PBS 100 mM, pH 7.4) containing 0.1 mM 3-(trimethylsilyl) propionic acid (TSP-d4), and 600 μL of deuterated chloroform containing 0.03% tetramethylsilane (TMS). […] Two-dimensional NMR spectra, namely, ^1H-^1H TOCSY, J-resolved and ^1H-^13C HSQC spectra, were also recorded for selected samples to aid metabolite identification. Signal assignment was based on matching 1D and 2D spectral information to reference spectra available in Chenomx 9.0 (Edmonton, AB, Canada), BBIOREFCODE-2–0–0 (Bruker Biospin, Rheinstetten, Germany) and HMDB.
Principal Component Analysis (PCA) and Partial Least Squares-Discriminant Analysis (PLS-DA) were applied and the results were visualized through factorial co-ordinates (‘scores’) and factorial contributions (‘loadings’) colored according to variable importance to the projection (VIP). For PLS-DA models, Q^2 and R^2 values, respectively reflecting predictive capability and explained variance, obtained from sevenfold internal cross validation, were used to assess the robustness of group discrimination.
(§4) To provide a quantitative measurement of metabolic variations, spectral integration and total area normalization of selected signals (vide Supplementary Table S1) were carried out in Amix-Viewer 3.9.15 (Bruker Biospin, Rheinstetten, Germany). For each metabolite, the percentage of variation (or fold change) in exposed samples was calculated relative to respective controls, along with the effect size (ES) and statistical significance (p-value). The variations with larger magnitude (|ES| > 0.8) were expressed in a heatmap.

SH-SY5Y cells [2] = experiment: 1H NMR metabolic profiling of culture medium (consumption/excretion); assay type: cell-based, human; settings: vs control
Procedure: as §1, §2, §3, §4

CCCNC(C)C(=O)Nc1c(C)csc1C(=O)OC (stereo not drawn) [ATC, Articaine hydrochloride]
2-Ketovaline, variation in relation to control (SH-SY5Y cells [1]; IC10, 24 h): 24.7%
2-Oxoisoleucine, variation in relation to control (SH-SY5Y cells [1]; IC10, 24 h): 33.8%
ATP + ADP, variation in relation to control (SH-SY5Y cells [1]; IC10, 24 h): -8.0%
Alanine, variation in relation to control (SH-SY5Y cells [1]; IC10, 24 h): 0.0%
Asparagine, variation in relation to control (SH-SY5Y cells [1]; IC10, 24 h): -24.6%
Aspartate, variation in relation to control (SH-SY5Y cells [1]; IC10, 24 h): -17.2%
Creatine, variation in relation to control (SH-SY5Y cells [1]; IC10, 24 h): 9.0%
Cystathionine, variation in relation to control (SH-SY5Y cells [1]; IC10, 24 h): 10.9%
Formate, variation in relation to control (SH-SY5Y cells [1]; IC10, 24 h): 0.0%
Glutamate, variation in relation to control (SH-SY5Y cells [1]; IC10, 24 h): -6.3%
Glutamine, variation in relation to control (SH-SY5Y cells [1]; IC10, 24 h): -10.8%
Glycerophosphocholine, variation in relation to control (SH-SY5Y cells [1]; IC10, 24 h): -11.3%
Glycine, variation in relation to control (SH-SY5Y cells [1]; IC10, 24 h): 0.0%
Histidine, variation in relation to control (SH-SY5Y cells [1]; IC10, 24 h): 29.6%
Isobutyrate, variation in relation to control (SH-SY5Y cells [1]; IC10, 24 h): 0.0%
Isoleucine, variation in relation to control (SH-SY5Y cells [1]; IC10, 24 h): 30.5%
Lactate, variation in relation to control (SH-SY5Y cells [1]; IC10, 24 h): 0.0%
Leucine, variation in relation to control (SH-SY5Y cells [1]; IC10, 24 h): 39.9%
NAD+, variation in relation to control (SH-SY5Y cells [1]; IC10, 24 h): 0.0%
Panthothenic, variation in relation to control (SH-SY5Y cells [1]; IC10, 24 h): 42.7%
Phenylalanine, variation in relation to control (SH-SY5Y cells [1]; IC10, 24 h): 43.6%
Phosphocholine, variation in relation to control (SH-SY5Y cells [1]; IC10, 24 h): 0.0%
Phosphocreatine, variation in relation to control (SH-SY5Y cells [1]; IC10, 24 h): 0.0%
Proline, variation in relation to control (SH-SY5Y cells [1]; IC10, 24 h): 0.0%
UDP-GlcNAc, variation in relation to control (SH-SY5Y cells [1]; IC10, 24 h): -18.7%
Valine, variation in relation to control (SH-SY5Y cells [1]; IC10, 24 h): 27.2%
beta-Alanine, variation in relation to control (SH-SY5Y cells [1]; IC10, 24 h): -7.4%
myo-Inositol, variation in relation to control (SH-SY5Y cells [1]; IC10, 24 h): -19.0%
2-Ketovaline, variation in relation to control (SH-SY5Y cells [1]; IC50, 24 h): 28.3%
2-Oxoisoleucine, variation in relation to control (SH-SY5Y cells [1]; IC50, 24 h): 34.4%
ATP + ADP, variation in relation to control (SH-SY5Y cells [1]; IC50, 24 h): -14.0%
Alanine, variation in relation to control (SH-SY5Y cells [1]; IC50, 24 h): 21.3%
Asparagine, variation in relation to control (SH-SY5Y cells [1]; IC50, 24 h): 26.5%
Aspartate, variation in relation to control (SH-SY5Y cells [1]; IC50, 24 h): 23.7%
Creatine, variation in relation to control (SH-SY5Y cells [1]; IC50, 24 h): 14.7%
Cystathionine, variation in relation to control (SH-SY5Y cells [1]; IC50, 24 h): 0.0%
Formate, variation in relation to control (SH-SY5Y cells [1]; IC50, 24 h): 40.5%
Glutamate, variation in relation to control (SH-SY5Y cells [1]; IC50, 24 h): 25.8%
Glutamine, variation in relation to control (SH-SY5Y cells [1]; IC50, 24 h): 17.8%
Glycerophosphocholine, variation in relation to control (SH-SY5Y cells [1]; IC50, 24 h): -75.7%
Glycine, variation in relation to control (SH-SY5Y cells [1]; IC50, 24 h): 42.8%
Histidine, variation in relation to control (SH-SY5Y cells [1]; IC50, 24 h): 37.5%
Isobutyrate, variation in relation to control (SH-SY5Y cells [1]; IC50, 24 h): -78.2%
Isoleucine, variation in relation to control (SH-SY5Y cells [1]; IC50, 24 h): 44.5%
Lactate, variation in relation to control (SH-SY5Y cells [1]; IC50, 24 h): -17.5%
Leucine, variation in relation to control (SH-SY5Y cells [1]; IC50, 24 h): 60.3%
NAD+, variation in relation to control (SH-SY5Y cells [1]; IC50, 24 h): 11.9%
Panthothenic, variation in relation to control (SH-SY5Y cells [1]; IC50, 24 h): 40.0%
Phenylalanine, variation in relation to control (SH-SY5Y cells [1]; IC50, 24 h): 50.2%
Phosphocholine, variation in relation to control (SH-SY5Y cells [1]; IC50, 24 h): 0.0%
Phosphocreatine, variation in relation to control (SH-SY5Y cells [1]; IC50, 24 h): -18.9%
Proline, variation in relation to control (SH-SY5Y cells [1]; IC50, 24 h): -17.8%
UDP-GlcNAc, variation in relation to control (SH-SY5Y cells [1]; IC50, 24 h): -85.9%
Valine, variation in relation to control (SH-SY5Y cells [1]; IC50, 24 h): 44.8%
beta-Alanine, variation in relation to control (SH-SY5Y cells [1]; IC50, 24 h): -60.7%
myo-Inositol, variation in relation to control (SH-SY5Y cells [1]; IC50, 24 h): -42.6%
intracellular glutamate level (in words) (SH-SY5Y cells [1]; IC50, 24 h, vs control): increased
intracellular phosphocholine level (in words) (SH-SY5Y cells [1]; IC50, 24 h, vs control): not altered
pyruvate consumption (SH-SY5Y cells [2]; IC10, 24 h): increased significantly
pyruvate consumption (SH-SY5Y cells [2]; IC50, 24 h): no difference to controls
